{"source": "patent US20190054103A1", "about": "“METHOD OF TREATMENT OF TP53 WILD-TYPE TUMORS WITH 2',2'-DIFLUORO-5-AZA-2'-DEOXYCYTIDINE OR PRODRUGS THEREOF” (priority 2016, published 2019)", "key": {"[1]": {"test_system": "TP53 WT colon cancer cell line LoVo", "test": "CellTiter-Glo growth inhibition, LoVo", "assay_type": "cell-based", "details": "Homo sapiens, 72-hour exposure, FIG. 2", "protocol": "Two examples of additional comparisons are provided below for colon cancer cell lines (TP53 WT colon cancer cell line Ls174T and TP53 WT colon cancer cell line LoVo).\nIn these assays, two 96 well plates of each cell line were seeded with 5,000 cells per well in a total volume of […] per well and left incubating overnight. The following day, the cells were exposed to different concentrations of NUC013. At the end of a 72-hour exposure period, the plates were removed for CellTiter-Glo® assay. Luminescence was recorded on a Synergy 4.0."}, "[2]": {"test_system": "A549/ATCC", "test": "NCI 60 Cell Line Panel growth inhibition", "assay_type": "cell-based, human", "details": "Lung-NSCL, TP53 wild type", "excerpt": "(§1) The NCI-60 Cell Line Panel was assembled by the National Cancer Institute as an in vitro anticancer drug screen. The panel comprises human cancer cell lines representing nine different tissues of origin: breast, colon, central nervous system, renal, lung, melanoma, ovarian, prostate, and hematogenous. […] See, e.g., Leroy et al. “Analysis of TP53 Mutation Status in Human Cancer Cell Lines: a Reassesment” Hum Mutat 2014 35(6): 756-765."}, "[3]": {"test_system": "SNB-75", "test": "NCI 60 Cell Line Panel growth inhibition", "assay_type": "cell-based, human", "details": "SNB-75, CNS cancer, TP53 null/mutant", "excerpt": "as §1"}, "[4]": {"test_system": "CAKI-1", "test": "NCI 60 Cell Line Panel growth inhibition", "assay_type": "cell-based, human", "details": "CAKI-1, Renal cancer, TP53 wild type", "excerpt": "as §1"}, "[5]": {"test_system": "NCI/ADR-RES", "test": "NCI 60 Cell Line Panel growth inhibition", "assay_type": "cell-based, human", "details": "Ovarian cancer, TP53 null/mutant", "excerpt": "as §1"}, "[6]": {"test_system": "SK-OV-3", "test": "NCI 60 Cell Line Panel growth inhibition", "assay_type": "cell-based, human", "details": "SK-OV-3, Ovarian cancer, TP53 null/mutant", "excerpt": "as §1"}, "[7]": {"test_system": "SF-539", "test": "NCI 60 Cell Line Panel growth inhibition", "assay_type": "cell-based, human", "details": "SF-539, CNS cancer, TP53 null/mutant", "excerpt": "as §1"}, "[8]": {"test_system": "RXF 393", "test": "NCI 60 Cell Line Panel growth inhibition", "assay_type": "cell-based, human", "details": "RXF 393, Renal cancer, TP53 null/mutant", "excerpt": "as §1"}, "[9]": {"test_system": "M14", "test": "NCI 60 Cell Line Panel growth inhibition", "assay_type": "cell-based, human", "details": "M14, Melanoma, TP53 null/mutant", "excerpt": "as §1"}, "[10]": {"test_system": "RPMI-8226", "test": "NCI 60 Cell Line Panel growth inhibition", "assay_type": "cell-based, human", "details": "RPMI-8226, Leukemia, TP53 null/mutant", "excerpt": "as §1"}, "[11]": {"test_system": "PC-3", "test": "NCI 60 Cell Line Panel growth inhibition", "assay_type": "cell-based, human", "details": "PC-3, Prostate cancer, TP53 null/mutant", "excerpt": "as §1"}, "[12]": {"test_system": "SK-MEL-2", "test": "NCI 60 Cell Line Panel growth inhibition", "assay_type": "cell-based, human", "details": "SK-MEL-2, Melanoma, TP53 null/mutant", "excerpt": "as §1"}, "[13]": {"test_system": "HCC-2998", "test": "NCI 60 Cell Line Panel growth inhibition", "assay_type": "cell-based, human", "details": "HCC-2998, Colon cancer, TP53 null/mutant", "excerpt": "as §1"}, "[14]": {"test_system": "SNB-19", "test": "NCI 60 Cell Line Panel growth inhibition", "assay_type": "cell-based, human", "details": "SNB-19, CNS cancer, TP53 null/mutant", "excerpt": "as §1"}, "[15]": {"test_system": "MDA-MB-231", "test": "NCI 60 Cell Line Panel growth inhibition", "assay_type": "cell-based, human", "details": "MDA-MB-231, Breast cancer, TP53 null/mutant", "excerpt": "as §1"}, "[16]": {"test_system": "K-562", "test": "NCI 60 Cell Line Panel growth inhibition", "assay_type": "cell-based, human", "details": "K-562, Leukemia, TP53 null/mutant", "excerpt": "as §1"}, "[17]": {"test_system": "BT-549", "test": "NCI 60 Cell Line Panel growth inhibition", "assay_type": "cell-based, human", "details": "BT-549, Breast cancer, TP53 null/mutant", "excerpt": "as §1"}, "[18]": {"test_system": "HL-60", "test": "NCI 60 Cell Line Panel growth inhibition", "assay_type": "cell-based, human", "details": "HL-60, Leukemia, TP53 null/mutant", "excerpt": "as §1"}, "[19]": {"test_system": "ACHN", "test": "NCI 60 Cell Line Panel growth inhibition", "assay_type": "cell-based, human", "details": "Renal cancer, TP53 wild type", "excerpt": "as §1"}, "[20]": {"test_system": "OVCAR-4", "test": "NCI 60 Cell Line Panel growth inhibition", "assay_type": "cell-based, human", "details": "OVCAR-4, Ovarian cancer, TP53 null/mutant", "excerpt": "as §1"}, "[21]": {"test_system": "MDA-MB-435", "test": "NCI 60 Cell Line Panel growth inhibition", "assay_type": "cell-based, human", "details": "MDA-MB-435, Melanoma, TP53 null/mutant", "excerpt": "as §1"}, "[22]": {"test_system": "SK-MEL-28", "test": "NCI 60 Cell Line Panel growth inhibition", "assay_type": "cell-based, human", "details": "SK-MEL-28, Melanoma, TP53 null/mutant", "excerpt": "as §1"}, "[23]": {"test_system": "HS 578T", "test": "NCI 60 Cell Line Panel growth inhibition", "assay_type": "cell-based, human", "details": "Breast cancer, TP53 null/mutant", "excerpt": "as §1"}, "[24]": {"test_system": "A498", "test": "NCI 60 Cell Line Panel growth inhibition", "assay_type": "cell-based, human", "details": "A498, Renal cancer, TP53 wild type", "excerpt": "as §1"}, "[25]": {"test_system": "786-0", "test": "NCI 60 Cell Line Panel growth inhibition", "assay_type": "cell-based, human", "details": "786-0, Renal cancer, TP53 null/mutant", "excerpt": "as §1"}, "[26]": {"test_system": "SN12C", "test": "NCI 60 Cell Line Panel growth inhibition", "assay_type": "cell-based, human", "details": "Renal cancer, TP53 null/mutant", "excerpt": "as §1"}, "[27]": {"test_system": "SR", "test": "NCI 60 Cell Line Panel growth inhibition", "assay_type": "cell-based, human", "details": "Leukemia, TP53 wild type", "excerpt": "as §1"}, "[28]": {"test_system": "EKVX", "test": "NCI 60 Cell Line Panel growth inhibition", "assay_type": "cell-based, human", "details": "Lung-NSCL, TP53 null/mutant", "excerpt": "as §1"}, "[29]": {"test_system": "MCF7", "test": "NCI 60 Cell Line Panel growth inhibition", "assay_type": "cell-based, human", "details": "MCF7, Breast cancer, TP53 wild type", "excerpt": "as §1"}, "[30]": {"test_system": "KM12", "test": "NCI 60 Cell Line Panel growth inhibition", "assay_type": "cell-based, human", "details": "KM12, Colon cancer, TP53 null/mutant", "excerpt": "as §1"}, "[31]": {"test_system": "HCT-15", "test": "NCI 60 Cell Line Panel growth inhibition", "assay_type": "cell-based, human", "details": "HCT-15, Colon cancer, TP53 null/mutant", "excerpt": "as §1"}, "[32]": {"test_system": "CCRF-CEM", "test": "NCI 60 Cell Line Panel growth inhibition", "assay_type": "cell-based, human", "details": "Leukemia, TP53 null/mutant", "excerpt": "as §1"}, "[33]": {"test_system": "CFPAC-1", "test": "Growth inhibition of pancreatic cancer cell line CFPAC-1", "assay_type": "cell-based", "details": "Homo sapiens"}, "[34]": {"test_system": "LoVo (colon cancer, TP WT)", "test": "Xenograft model, nude mice implanted with LoVo", "details": "for mean tumor volumes compared to saline control: study days 9 through 51, FIG. 3B"}}, "data": [{"smiles": "Nc1ncn([C@@H]2O[C@H](CO)[C@@H](O)C2(F)F)c(=O)n1", "note": "[NUC013, 4-amino-1-((2R,4R,5R)-3,3-difluoro-4-hydroxy-5-(hydroxymethyl)tetrahydrofuran-2-yl)-1,3,5-triazin-2(1H)-one]", "values": [{"measurement": "GI50", "setting": "[1]", "value": 3, "unit": "µM"}, {"measurement": "Growth (%) at 10 μM", "setting": "[2]", "value": 37.91, "unit": "%"}, {"measurement": "Growth (%) at 10 μM", "setting": "[3]", "value": 64.95, "unit": "%"}, {"measurement": "Growth (%) at 10 μM", "setting": "[4]", "value": 27.86, "unit": "%"}, {"measurement": "Growth (%) at 10 μM", "setting": "[5]", "value": 42.13, "unit": "%"}, {"measurement": "Growth (%) at 10 μM", "setting": "[6]", "value": 71.09, "unit": "%"}, {"measurement": "Growth (%) at 10 μM", "setting": "[7]", "value": 22.25, "unit": "%"}, {"measurement": "Growth (%) at 10 μM", "setting": "[8]", "value": 44.97, "unit": "%"}, {"measurement": "Growth (%) at 10 μM", "setting": "[9]", "value": 15.55, "unit": "%"}, {"measurement": "Growth (%) at 10 μM", "setting": "[10]", "value": 39.24, "unit": "%"}, {"measurement": "Growth (%) at 10 μM", "setting": "[11]", "value": 63.57, "unit": "%"}, {"measurement": "Growth (%) at 10 μM", "setting": "[12]", "value": 104.47, "unit": "%"}, {"measurement": "Growth (%) at 10 μM", "setting": "[13]", "value": 60.44, "unit": "%"}, {"measurement": "Growth (%) at 10 μM", "setting": "[14]", "value": 58.88, "unit": "%"}, {"measurement": "Growth (%) at 10 μM", "setting": "[15]", "value": 79.98, "unit": "%"}, {"measurement": "Growth (%) at 10 μM", "setting": "[16]", "value": 65.66, "unit": "%"}, {"measurement": "Growth (%) at 10 μM", "setting": "[17]", "value": 53.63, "unit": "%"}, {"measurement": "Growth (%) at 10 μM", "setting": "[18]", "value": 25.23, "unit": "%"}, {"measurement": "Growth (%) at 10 μM", "setting": "[19]", "value": 7.28, "unit": "%"}, {"measurement": "Growth (%) at 10 μM", "setting": "[20]", "value": 94.88, "unit": "%"}, {"measurement": "Growth (%) at 10 μM", "setting": "[21]", "value": 53.04, "unit": "%"}, {"measurement": "Growth (%) at 10 μM", "setting": "[22]", "value": 78.46, "unit": "%"}, {"measurement": "Growth (%) at 10 μM", "setting": "[23]", "value": 90.37, "unit": "%"}, {"measurement": "Growth (%) at 10 μM", "setting": "[24]", "value": 38.04, "unit": "%"}, {"measurement": "Growth (%) at 10 μM", "setting": "[25]", "value": 26.29, "unit": "%"}, {"measurement": "Growth (%) at 10 μM", "setting": "[26]", "value": 51.65, "unit": "%"}, {"measurement": "Growth (%) at 10 μM", "setting": "[27]", "value": 14.99, "unit": "%"}, {"measurement": "Growth (%) at 10 μM", "setting": "[28]", "value": 86.06, "unit": "%"}, {"measurement": "Growth (%) at 10 μM", "setting": "[29]", "value": 20.74, "unit": "%"}, {"measurement": "Growth (%) at 10 μM", "setting": "[30]", "value": 61.18, "unit": "%"}, {"measurement": "Growth (%) at 10 μM", "setting": "[31]", "value": 52.19, "unit": "%"}, {"measurement": "Growth (%) at 10 μM", "setting": "[32]", "value": 23.67, "unit": "%"}, {"measurement": "GI50", "setting": "[33]", "value": 53.8, "unit": "µM"}, {"measurement": "survival compared to saline controls", "setting": "[34]; 5.8 mg/kg", "value": "no difference in survival"}, {"measurement": "mean tumor weight lower compared to controls", "setting": "[34]; 5.8 mg/kg, 8 days following the end of treatment", "value": 24.3, "unit": "%"}, {"measurement": "mean tumor volumes compared to saline control", "setting": "[34]; 20 mg/kg", "value": "significantly lower"}, {"measurement": "mean tumor volumes compared to saline control", "setting": "[34]; 40 mg/kg", "value": "significantly lower"}]}]}
